Results from patent US7138361B2, “Herbicidal heterocycles” (E. I. du Pont de Nemours and Company, priority 2000, dated 2006).

How the values were obtained:
Assay type in all cases: in vivo
[1] = system: Surinam grass (Brachiaria decumbens); assay: Test B postemergence
How it was run: (§1)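 Visual injury scores, 0 = no effect to 100 = complete control, assigned against controls after 13 to 15 days in the greenhouse. Compounds formulated in non-phytotoxic solvent plus surfactant and applied to soil after planting (pre) or onto foliage of 1- to 4-leaf plants (post).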

[2] = system: barnyardgrass (Echinochloa crus-galli); assay: Test B postemergence
How it was run: as §1

[3] = system: cocklebur (Xanthium strumarium); assay: Test B postemergence
How it was run: as §1

corn (Zea mays) [4] = assay: Test B postemergence
How it was run: as §1

[5] = system: giant foxtail (Setaria faberii); assay: Test B postemergence
How it was run: as §1

[6] = system: lambsquarters (Chenopodium album); assay: Test B postemergence
How it was run: as §1

[7] = system: morning glory (Ipomoea hederacea); assay: Test B postemergence
How it was run: as §1

[8] = system: pigweed (Amaranthus retroflexus); assay: Test B postemergence
How it was run: as §1

[9] = system: velvetleaf (Abutilon theophrasti); assay: Test B postemergence
How it was run: as §1

[10] = system: wheat (Triticum aestivum); assay: Test B postemergence
How it was run: as §1

wild oat (Avena fatua) = assay: Test B postemergence
How it was run: as §1

[11] = system: Surinam grass (Brachiaria decumbens); assay: Test B preemergence
How it was run: as §1

[12] = system: barnyardgrass (Echinochloa crus-galli); assay: Test B preemergence
How it was run: as §1

[13] = system: cocklebur (Xanthium strumarium); assay: Test B preemergence
How it was run: as §1

corn (Zea mays) [14] = assay: Test B preemergence
How it was run: as §1

[15] = system: crabgrass (Digitaria sanguinalis); assay: Test B preemergence
How it was run: as §1

[16] = system: giant foxtail (Setaria faberii); assay: Test B preemergence
How it was run: as §1

[17] = system: lambsquarters (Chenopodium album); assay: Test B preemergence
How it was run: as §1

[18] = system: morning glory (Ipomoea hederacea); assay: Test B preemergence
How it was run: as §1

[19] = system: pigweed (Amaranthus retroflexus); assay: Test B preemergence
How it was run: as §1

rice (Oryza saliva) = assay: Test B preemergence
How it was run: as §1

[20] = system: velvetleaf (Abutilon theophrasti); assay: Test B preemergence
How it was run: as §1

Nightshade = assay: Test C preemergence; conditions: Rate 500 g/ha, visual evaluation after 12 to 14 days
Sunflower = assay: Test C preemergence; conditions: Rate 250 g/ha, scale 0 to 100, 0 no effect, 100 complete control
[21] = system: blackgrass (Alopecurus myosuroides); assay: Test B postemergence; conditions: 13 to 15 days
How it was run: as §1

[22] = system: crabgrass (Digitaria sanguinalis); assay: Test B postemergence; conditions: 13 to 15 days
How it was run: as §1

[23] = Rate 125 g/ha, scale 0 to 100, 0 no effect, 100 complete control
[24] = Rate 500 g/ha, scale 0 to 100, 0 is no effect, 100 is complete control, 13 to 15 days
[25] = Preemergence, Rate 500 g/ha, scale 0 to 100, 0 no effect, 100 complete control
[26] = preemergence, Rate 125 g/ha, scale of 0 to 100 where 0 is no effect and 100 is complete control, 13 to 15 days
[27] = Rate 125 g/ha, scale 0 (no effect) to 100 (complete control), 13 to 15 days
[28] = Rate 125 g/ha, scale 0 (no effect) to 100 (complete control)
[29] = Rate 500 g/ha, scale 0 to 100, 0 is no effect, 100 is complete control

Cc1ccc(N2CCC(n3ccc(C(C)(C)C)n3)C2=O)cc1I (stereo not drawn) [Compound 122]
30: Plant response rating, Cocklebur [3, 23] | Plant response rating, Pigweed [8, 23] | Plant response rating, Foxtail, Giant [16, 25]
90: Plant response rating, Cocklebur [3, 24] | Plant response rating, Lambsquarters [6, 23] | Plant response rating (0 to 100), Nightshade (Nightshade)
20: Plant response rating, Morningglory [7, 23] | Plant response rating, Foxtail, Giant [16, 26]
0: Plant response rating, Surinam grass [1, 23] | Plant response rating, Surinam grass [1, 24] | Plant response rating, Barnyardgrass [2, 23] | Plant response rating, Barnyardgrass [2, 24] | Plant response rating, Corn (corn (Zea mays) [4]; [23]) | Plant response rating, Corn (corn (Zea mays) [4]; [24]) | Plant response rating, Foxtail, Giant [5, 23] | Plant response rating, Velvetleaf [9, 23] | Plant response rating, Wheat [10, 23] | Plant response rating, Wild Oat (wild oat (Avena fatua); [23]) | Plant response rating, Barnyardgrass [12, 26] | Plant response rating, Cocklebur [13, 25] | Plant response rating, Cocklebur [13, 26] | Plant response rating, Corn (corn (Zea mays) [14]; [25]) | Plant response rating, Corn (corn (Zea mays) [14]; [26]) | Plant response rating, Morningglory [18, 25] | Plant response rating, Morningglory [18, 26] | Plant response rating, Rice (rice (Oryza saliva); [25]) | Plant response rating, Rice (rice (Oryza saliva); [26]) | Plant response rating, Velvetleaf [20, 25] | Plant response rating, Velvetleaf [20, 26] | Plant response rating, Sunflower (Sunflower)
70: Plant response rating, Surinam grass [11, 25]
100: Plant response rating, Barnyardgrass [12, 25] | Plant response rating, Crabgrass [15, 25] | Plant response rating, Crabgrass [15, 26] | Plant response rating, Lambsquarters [17, 25] | Plant response rating, Lambsquarters [17, 26] | Plant response rating, Pigweed [19, 25] | Plant response rating, Pigweed [19, 26]
50: Plant response rating, Surinam grass [11, 26]

CCCC(C)c1ccn(C2CCN(c3cccc(C(F)(F)F)c3)C2=O)n1 (stereo not drawn) [Compound 100]
100: Plant response rating, Barnyardgrass [12, 25] | Plant response rating, Crabgrass [15, 25] | Plant response rating, Lambsquarters [17, 25] | Plant response rating, Lambsquarters [17, 26] | Plant response rating, Pigweed [19, 25]
80: Plant response rating, Lambsquarters [6, 24]
70: Plant response rating, Foxtail, Giant [16, 25] | Plant response rating, Pigweed [19, 26]
20: Plant response rating, Surinam grass [11, 25] | Plant response rating, Corn (corn (Zea mays) [14]; [25]) | Plant response rating, Rice (rice (Oryza saliva); [25])
0: Plant response rating, Surinam grass [1, 27] | Plant response rating, Surinam grass [1, 24] | Plant response rating, Barnyardgrass [2, 27] | Plant response rating, Barnyardgrass [2, 24] | Plant response rating, Blackgrass [21, 28] | Plant response rating, Blackgrass [21, 29] | Plant response rating, Corn (corn (Zea mays) [4]; [27]) | Plant response rating, Corn (corn (Zea mays) [4]; [24]) | Plant response rating, Crabgrass [22, 28] | Plant response rating, Crabgrass [22, 29] | Plant response rating, Foxtail, Giant [5, 27] | Plant response rating, Foxtail, Giant [5, 24] | Plant response rating, Morningglory [7, 24] | Plant response rating, Pigweed [8, 24] | Plant response rating, Velvetleaf [9, 24] | Plant response rating, Wheat [10, 24] | Plant response rating, Wild Oat (wild oat (Avena fatua); [24]) | Plant response rating, Surinam grass [11, 26] | Plant response rating, Barnyardgrass [12, 26] | Plant response rating, Cocklebur [13, 25] | Plant response rating, Cocklebur [13, 26] | Plant response rating, Corn (corn (Zea mays) [14]; [26]) | Plant response rating, Crabgrass [15, 26] | Plant response rating, Foxtail, Giant [16, 26] | Plant response rating, Morningglory [18, 25] | Plant response rating, Morningglory [18, 26] | Plant response rating, Rice (rice (Oryza saliva); [26]) | Plant response rating, Velvetleaf [20, 25] | Plant response rating, Velvetleaf [20, 26] | Plant response rating (0 to 100), Nightshade (Nightshade) | Plant response rating, Sunflower (Sunflower)
